# Measured values reported in patent US8710233B2 (Gruenenthal GmbH, priority 2005, dated 2014).
# Like-named read-outs stand apart in the source and are kept apart here.
# How the values were obtained:
# [1] = system: formaldehyde induced nociceptive behaviour; experiment: Formaldehyde test in mice, second (late) phase; format: in vivo, mouse; settings: mouse; for inhibition in vivo at 1 mg/kg: 1 mg/kg body weight po
# [2] = molecular target: T1, vanilloid receptor 1 (VR1/TRPV1) of the rat species (Rattus norvegicus, UniProt O35433); experiment: FLIPR Ca2+ influx assay on rat dorsal root ganglia cells (pharmacological method I); format: cell-based
# T1 construct: The spinal column is removed from decapitated rats; from tissue; host or cells: primary cells dissociated from rat dorsal root ganglia
# T1 sequence (O35433 whole entry): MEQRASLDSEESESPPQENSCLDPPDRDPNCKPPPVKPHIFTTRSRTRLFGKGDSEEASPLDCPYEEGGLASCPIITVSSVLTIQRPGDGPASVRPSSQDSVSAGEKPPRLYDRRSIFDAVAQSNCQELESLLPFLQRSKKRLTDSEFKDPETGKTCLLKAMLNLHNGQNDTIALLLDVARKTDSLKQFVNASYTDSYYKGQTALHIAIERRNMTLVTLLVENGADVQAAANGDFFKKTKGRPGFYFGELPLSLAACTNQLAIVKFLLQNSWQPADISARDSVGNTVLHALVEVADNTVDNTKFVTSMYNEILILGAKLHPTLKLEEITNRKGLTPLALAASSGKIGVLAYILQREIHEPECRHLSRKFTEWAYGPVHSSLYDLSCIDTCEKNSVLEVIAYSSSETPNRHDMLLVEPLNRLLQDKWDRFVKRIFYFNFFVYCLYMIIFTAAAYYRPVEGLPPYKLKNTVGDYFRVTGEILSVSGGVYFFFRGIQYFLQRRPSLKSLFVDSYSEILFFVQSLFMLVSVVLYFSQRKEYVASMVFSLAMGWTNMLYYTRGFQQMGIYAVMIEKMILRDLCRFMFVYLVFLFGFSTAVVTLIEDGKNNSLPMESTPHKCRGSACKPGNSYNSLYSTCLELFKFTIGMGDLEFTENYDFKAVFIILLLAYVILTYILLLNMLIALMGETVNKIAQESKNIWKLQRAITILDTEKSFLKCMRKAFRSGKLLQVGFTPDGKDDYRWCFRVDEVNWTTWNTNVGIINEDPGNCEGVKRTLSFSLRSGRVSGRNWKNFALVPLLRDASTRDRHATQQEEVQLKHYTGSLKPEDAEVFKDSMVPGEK
# In short: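 Primary rat dorsal root ganglion cells loaded with 2 μM Fluo-4, Ca2+ influx read on FLIPR as peak fluorescence. Triplicates, at least 3 independent experiments.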
# [3] = molecular target: T2, vanilloid receptor (VR1) (Homo sapiens, UniProt Q8NER1); experiment: FLIPR Ca2+ influx assay on CHO K1 cells transfected with the VR1 gene (pharmacological method II); format: cell-based
# T2 construct: expressed in transfected cells; host or cells: CHO K1 cells (ECACC), stably transfected
# T2 sequence (Q8NER1 whole entry): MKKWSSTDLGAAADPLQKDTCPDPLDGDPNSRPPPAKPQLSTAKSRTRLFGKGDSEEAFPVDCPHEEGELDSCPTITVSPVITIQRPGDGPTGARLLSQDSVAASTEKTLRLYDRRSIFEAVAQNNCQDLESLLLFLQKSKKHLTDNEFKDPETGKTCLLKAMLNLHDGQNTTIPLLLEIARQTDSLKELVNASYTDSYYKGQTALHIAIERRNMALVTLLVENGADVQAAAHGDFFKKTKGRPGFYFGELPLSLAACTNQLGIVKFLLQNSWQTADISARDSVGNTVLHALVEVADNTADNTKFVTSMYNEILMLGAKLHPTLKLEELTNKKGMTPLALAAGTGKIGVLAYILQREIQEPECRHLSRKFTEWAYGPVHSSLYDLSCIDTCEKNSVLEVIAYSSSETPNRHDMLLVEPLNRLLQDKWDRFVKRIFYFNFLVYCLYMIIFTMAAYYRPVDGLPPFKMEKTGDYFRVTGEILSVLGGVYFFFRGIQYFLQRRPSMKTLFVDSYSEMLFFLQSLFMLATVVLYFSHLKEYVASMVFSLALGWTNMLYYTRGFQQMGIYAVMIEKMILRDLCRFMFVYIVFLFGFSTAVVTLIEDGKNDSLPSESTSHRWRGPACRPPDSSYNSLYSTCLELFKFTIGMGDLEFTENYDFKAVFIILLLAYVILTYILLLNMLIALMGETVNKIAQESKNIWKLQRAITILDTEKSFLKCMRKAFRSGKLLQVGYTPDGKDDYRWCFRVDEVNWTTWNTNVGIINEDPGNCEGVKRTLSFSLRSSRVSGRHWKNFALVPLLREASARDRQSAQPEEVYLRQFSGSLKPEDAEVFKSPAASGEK
# [4] = molecular target: VR1/TRPV1 receptor (Homo sapiens, UniProt Q8NER1); experiment: IC50 (human) after pH stimulus; format: cell-based
# Chain of VR1/TRPV1 receptor (Q8NER1 whole entry): as above
# [5] = system: capsaicin induced hypothermie; experiment: Hypothermie assay in the mouse (capsaicin induced hypothermie); format: in vivo; settings: mouse, read-out: inhibition hypothermie (n = 5); for inhibition in vivo at 0.3 mg/kg: 0.3 mg/kg body weight po
# Protocol: V. Hypothermie Assay an der Maus
# Male NMRI mice (weight 25-35 gram, supplier IFFA CREDO, Bruxelles, Belgium) are used in the hypothermie assay. The animals are kept under standardized conditions: light/darkness interval (6:00 to 18:00 light; 18:00 to 6:00 Uhr darkness), room temperature 19-22° C., relative humidity 35-70%, 15 times per hour change of compartment air, airflow <0.2 m/sec. The animals were fed on a standardized diet (ssniff diet, ssniff Spezialdiäten GmbH, Soest, Germany) and tap water. Water and diet were detracted during the experiment. All animals were used once in the experiment. The animals were allowed to adapt to the experimental conditions for at least 5 days.
# The acute application of capsaicin (VR-1 agonist) leads to a decrease of the core body temperature in rat and mice via stimulation of heat sensors. Only compounds which act as specific VR-1-receptor antagonists can antagonize the capsaicin induced hypothermie. In contrast, morphine induced hypothermie is not antagonized by VR-1 antagonists. Thus, this experiment is suitable for the determination of compounds that act as VR1-antagonists via their effect on the core body temperature.
# For the determination of the core body temperature a digital thermometer was used (Thermalert TH-5, physitemp, Clifton N.J., USA). The measuring head was inserted into the rectum.
# The individual basis value is determined by measuring the body temperature twice in an interval of about half an hour. […] […] The test compound is given 10 min (i.v.) or 15 min (p.o.), respectively, before application of capsaicin. The body temperature is determined 7.5/15 and 30 min after application of capsaicin (i.v.+i.p.) or 15/30/60/90/120 min after application of capsaicin (p.o.+i.p.), respectively. In addition, another group of mice is only given the test compound or a vehicle control.
# The measuring points are given as average values±S.E.M. of the absolute values. The antagonistic effect is given in percent of inhibition of capsaicin induced hypothermie.
# [6] = 0.3 mg/kg body weight po, read-out: inhibition formaldehyde test (n = 10)
# [7] = read-out: inhibition formaldehyde test (n = 10)
# [8] = Table 2, displacement of capsaicin (100 nM), Cheng-Prusoff, read-out: Ki (rat)
# [9] = Table 2, displacement of capsaicin (100 nM), Cheng-Prusoff, read-out: Ki (human)
# [10] = table 4, capsaicin, read-out: Ki (rat) Cap.
# [11] = table 4, capsaicin, read-out: Ki (human) Cap.
structure (smiles),measurement,setting,value
CC(C(=O)NCc1ccc(C(F)(F)F)cc1N1CCCC1)c1ccc(NS(C)(=O)=O)c(F)c1 (stereo not shown) [Compound 34],inhibition in vivo at 0.3 mg/kg,[1]; [6],51%
CC(C(=O)NCc1ccc(C(F)(F)F)nc1-c1cccs1)c1ccc(NS(C)(=O)=O)c(F)c1 (stereo not shown) [Compound 88],inhibition in vivo at 1 mg/kg,[1]; [7],16%
CC(C(=O)NCc1ccc(C(F)(F)F)nc1NC1CCCCC1)c1ccc(NS(C)(=O)=O)c(F)c1 (stereo not shown) [Compound 90],inhibition in vivo at 1 mg/kg,[1]; [7],37%
CC(C(=O)NCc1ccc(C(F)(F)F)nc1N1CCCC1)c1ccc(NS(C)(=O)=O)c(Br)c1 (stereo not shown) [Compound 103],inhibition in vivo at 1 mg/kg,[1]; [7],50%
CCCCOc1cc(C(C)(C)C)ccc1CNC(=O)C(C)c1ccc(NS(C)(=O)=O)c(F)c1 (stereo not shown) [Compound 108],inhibition in vivo at 1 mg/kg,[1]; [7],24%
CC(C(=O)NCc1ccc(C(F)(F)F)nc1-c1ccc(C(C)(C)C)cc1)c1ccc(NS(C)(=O)=O)c(F)c1 (stereo not shown) [Compound 117],inhibition in vivo at 1 mg/kg,[1]; [7],41%
CC(C(=O)NCc1ccc(C(F)(F)F)nc1SC1CCCCC1)c1ccc(NS(C)(=O)=O)c(F)c1 (stereo not shown) [Compound 126],inhibition in vivo at 0.3 mg/kg,[1]; [6],69%
Cc1cc(C(C)C(=O)NCc2ccc(C(F)(F)F)nc2N2CCCCC2)ccc1NS(C)(=O)=O (stereo not shown) [Compound 127],inhibition in vivo at 1 mg/kg,[1]; [7],25%
CC(C(=S)NCc1ccc(C(F)(F)F)nc1N1CCCC1)c1ccc(NS(C)(=O)=O)c(F)c1 (stereo not shown) [Compound 129],inhibition in vivo at 1 mg/kg,[1]; [7],3%
CC(C(=S)NCc1ccc(C(F)(F)F)nc1-c1ccc(F)cc1)c1ccc(NS(C)(=O)=O)c(F)c1 (stereo not shown) [Compound 130],inhibition in vivo at 1 mg/kg,[1]; [7],55%
CC(C(=O)NCc1ccc(C(F)(F)F)nc1-c1cccc(F)c1)c1ccc(NS(C)(=O)=O)c(F)c1 (stereo not shown) [Compound 148],inhibition in vivo at 1 mg/kg,[1]; [7],46%
COC1CCN(c2nc(C(F)(F)F)ccc2CNC(=O)C(C)c2ccc(NS(C)(=O)=O)c(F)c2)CC1 (stereo not shown) [Compound 159],inhibition in vivo at 1 mg/kg,[1]; [7],14%
CCCCOC1CCN(c2nc(C(F)(F)F)ccc2CNC(=O)C(C)c2ccc(NS(C)(=O)=O)c(F)c2)CC1 (stereo not shown) [Compound 160],inhibition in vivo at 1 mg/kg,[1]; [7],14%
CC(C(=O)NCc1ccc(C(F)(F)F)nc1N1CCC(N2CCCC2)CC1)c1ccc(NS(C)(=O)=O)c(F)c1 (stereo not shown) [Compound 165],inhibition at 10 µM,"[2]; @ 10 μM, read-out: inhibition in percent, Ki (rat) Cap.",4%
same,inhibition at 10 µM,"[3]; CHO-K1, @ 10 μM, read-out: inhibition in percent, Ki (human) Cap.",0.5%
same,inhibition in vivo at 1 mg/kg,[1]; [7],15%
CC(C(=O)NCc1ccc(C(F)(F)Cl)nc1OC1CCCC1)c1ccc(NS(C)(=O)=O)c(F)c1 (stereo not shown) [Compound 166],inhibition in vivo at 1 mg/kg,[1]; [7],72%
CCCCN(C)c1nc(C(F)(F)F)ccc1CNC(=O)C(C)c1ccc(NS(C)(=O)=O)c(F)c1 (stereo not shown) [Compound 167],inhibition in vivo at 0.3 mg/kg,[1]; [6],56%
CCC1CCC(Oc2nc(C(F)(F)F)ccc2CNC(=O)C(C)c2ccc(NS(C)(=O)=O)c(F)c2)CC1 (stereo not shown) [Compound 171],inhibition in vivo at 1 mg/kg,[1]; [7],46%
CC(C(=O)NCc1ccc(C(F)(F)F)cc1N1CCCCCC1)c1ccc(NS(C)(=O)=O)c(F)c1 (stereo not shown) [Compound 174],inhibition in vivo at 1 mg/kg,[1]; [7],49%
CC(C(=O)NCc1ccc(C(F)(F)F)nc1OCc1ccncc1)c1ccc(NS(C)(=O)=O)c(F)c1 (stereo not shown) [Compound 177],inhibition at 0.1 µM,"[2]; read-out: inhibition in percent, Ki (rat) Cap.",9%
same,inhibition in vivo at 1 mg/kg,[1]; [7],24%
CC(C(=O)NCc1ccc(C(F)(F)F)nc1OCCc1ccccc1)c1ccc(NS(C)(=O)=O)c(F)c1 (stereo not shown) [Compound 178],inhibition in vivo at 1 mg/kg,[1]; [7],28%
CC(C(=O)NCc1ccc(C(F)(F)F)nc1N1CCN(c2ccc(F)cc2)CC1)c1ccc(NS(C)(=O)=O)c(F)c1 (stereo not shown) [Compound 179],inhibition in vivo at 1 mg/kg,[1]; [7],22%
CC(C(=O)NCc1ccc(C(F)(F)Cl)nc1OCc1ccccn1)c1ccc(NS(C)(=O)=O)c(F)c1 (stereo not shown) [Compound 182],inhibition in vivo at 1 mg/kg,[1]; [7],8%
"CC(C(=O)NCc1ccc(C(F)(F)F)cc1N1CCCC1)c1ccc(NS(C)(=O)=O)c(F)c1 (stereo not shown) [Example 34, 2-(3-fluoro-4-(methylsulfonamido)phenyl)-N-(2-(pyrrolidin-1-yl)-4-(trifluoromethyl)benzyl)propanamide]",Ki,[2]; [8],2.5 nM
same,IC50,[4]; Table 2,121 nM
same,Ki,[3]; [9],2.3 nM
same,inhibition in vivo at 0.1 mg/kg,"[1]; 0.1 mg/kg body weight po, read-out: inhibition formaldehyde test (n = 10)",6%
"CC(C(=O)NCc1ccc(C(F)(F)Cl)nc1N1CCCCC1)c1ccc(NS(C)(=O)=O)c(F)c1 (stereo not shown) [Example 71, N-((6-(chlorodiflouromethyl)-2-(piperidin-1-yl)pyridin-3-yl)methyl)-2-(3-fluoro-(4-methylsulfonamido)phenyl)propanamide]",Ki,[2]; [8],0.8 nM
same,IC50,[4]; Table 2,22.4 nM
same,Ki,[3]; [9],1.3 nM
same,inhibition formaldehyde test (n = 10),[1]; 0.3 mg/kg body weight po,0.3 po 0%
CC(C(=O)NCc1ccc(C(F)(F)F)nc1OC1CCCCC1)c1ccc(NS(C)(=O)=O)c(F)c1 (stereo not shown) [Example 76],Ki,"[2]; Ki (rat), Table 2, displacement of capsaicin (100 nM), Cheng-Prusoff",1.5 nM
same,IC50,[4]; Table 2,43.4 nM
same,Ki,[3]; [9],1.3 nM
same,inhibition in vivo at 0.3 mg/kg,[1]; [6],12%
"CCCCOc1nc(C(F)(F)Cl)ccc1CNC(=O)C(C)c1ccc(NS(C)(=O)=O)c(F)c1 (stereo not shown) [Example 140, N-[2-butoxy-6-(chlor-difluor-methyl)-pyridin-3-ylmethyl]-2-(3-fluoro-4-methylsulfonamido-phenyl)-propionamide]",Ki,[2]; [10],0.4 nM
same,IC50,[4]; table 4,9.2 nM
same,Ki,[3]; [11],0.7 nM
same,inhibition formaldehyde test (n = 10),[1]; 0.1 mg/kg body weight po,0.1 po 56%
"CC(C(=O)NCc1ccc(C(F)(F)F)nc1N1CCN(c2ncccc2Cl)CC1C)c1ccc(NS(C)(=O)=O)c(F)c1 (stereo not shown) [Example 194, N-{2-[4-(3-chloro-pyridin-2-yl)-2-methyl-piperazin-1-yl]-6-trifluoromethyl-pyridin-3-ylmethyl}-2-(3-fluoro-4-methylsulfonamido-phenyl)-propionamide]",inhibition in vivo at 0.3 mg/kg,[5],14%
same,Ki,[2]; [10],3.8 nM
same,inhibition at 1 µM,"[4]; @ 1 μM, ne = no effect, read-out: inhibition in percent, IC50 (human) after pH stimulus",21%
same,Ki,[3]; [11],4.1 nM
"CC(C(=O)NCc1ccc(C(F)(F)F)cc1OCc1ccccc1)c1ccc(NS(C)(=O)=O)c(F)c1 (stereo not shown) [Example 209, N-(2-benzyloxy-4-trifluoromethyl-benzyl)-2-(3-fluoro-4-methylsulfonamido-phenyl)-propionamide]",inhibition in vivo at 3 mg/kg,[5]; 3 mg/kg body weight po,46%
same,Ki,[2]; [10],0.2 nM
same,IC50,[4]; table 4,34.9 nM
same,Ki,[3]; [11],0.9 nM
CC(C(=O)NCc1ccc(C(F)(F)F)cc1N1CCN(c2ccccc2)CC1)c1ccc(NS(C)(=O)=O)c(F)c1 (stereo not shown) [Example 216],inhibition in vivo at 0.3 mg/kg,[5],4%
same,Ki,[2]; [10],0.5 nM
same,IC50,[4]; table 4,64.7 nM
same,Ki,[3]; [11],2 nM
"COc1ccc(N2CCN(c3nc(C(F)(F)F)ccc3CNC(=O)C(C)c3ccc(NS(C)(=O)=O)c(F)c3)CC2)cc1 (stereo not shown) [Example 221, 2-(3-fluoro-4-methylsulfonamido-phenyl)-N-{2-[4-(4-methoxy-phenyl)-piperazin-1-yl]-6-trifluoromethyl-pyridin-3-ylmethyl}-propionamide]",inhibition in vivo at 0.3 mg/kg,[5],18%
same,Ki,[2]; [10],1.9 nM
same,IC50,[4]; table 4,44.5 nM
same,Ki,[3]; [11],2.5 nM
"CCCCCOc1nc(C(F)(F)F)ccc1CNC(=O)C(C)c1ccc(NS(C)(=O)=O)c(F)c1 (stereo not shown) [Example 225, 2-(3-fluoro-4-methylsulfonamido-phenyl)-N-(2-pentyloxy-6-trifluoromethyl-pyridin-3-ylmethyl)-propionamide]",inhibition in vivo at 0.3 mg/kg,[5],20%
same,Ki,[2]; [10],0.5 nM
same,IC50,[4]; table 4,27.3 nM
same,Ki,[3]; [11],0.7 nM
